Entries after “also recorded” stand apart in the source; their conditions may differ. Where a name gives a salt, the structure may show the parent alone. Read-outs that look alike come from different tables or passages of the source.
Experiments:
mutated ARE = assay type: cell-based
[1] = test system: antioxidant response element (ARE) signaling pathway; test: ARE-bla β-lactamase reporter gene assay in HepG2 cells (qHTS); assay type: cell-based, human; conditions: for EC50: read-out: ARE-bla EC50
[2] = test system: Nrf2-dependent ARE transcriptional activity; test: ARE-luc luciferase reporter gene assay in HepG2 cells (qHTS); assay type: cell-based; parameters: Emax: reference not given here; conditions: for EC50: read-out: ARE-luc EC50
olfactory mucosa = test system: olfactory mucosa; parameters: method as in Genter et al. 2002; conditions: olfactory mucosa of treated rats; ref Genter et al. 2002; cited from earlier work
[3] = test system: hypoxia-inducible factor 1; parameters: method as in Xia et al. 2009; conditions: β-lactamase reporter gene assay; ref Xia et al. 2009; cited from earlier work
ROS = test system: ROS; parameters: method as in Chen et al. 2009; conditions: cell-based testing; ref Chen et al. 2009; cited from earlier work
[4] = confirmation/follow-up studies, HepG2, mean ± SD
[5] = Homo sapiens, HepG2, confirmation/follow-up studies, activation of ARE reporter as % of positive control (β-napthoflavone), read-out: ARE-bla Efficacy
[6] = Homo sapiens, confirmation/follow-up studies, HepG2, 16 hr exposure, mean ± SD
[7] = Homo sapiens, HepG2, confirmation/follow-up studies, activation of ARE reporter as % of positive control (β-napthoflavone), read-out: ARE-luc Efficacy
[8] = confirmation/follow-up studies, HepG2, 16 hr exposure, mean ± SD
[9] = confirmation/follow-up studies, […]
[10] = follow-up studies, up to 46 µM, listed as iodochlorohydroxyquinoline
[11] = primary qHTS screening, 0.59 nM to 92 µM
[12] = follow-up studies, up to 46 µM, listed as melphalan
[13] = Homo sapiens, HepG2, read-out: ARE-bla Efficacy
[14] = Homo sapiens, HepG2, read-out: ARE-luc Efficacy
[15] = follow-up studies, up to 46 µM, listed as quinoline
[16] = confirmation/follow-up studies, activation of ARE reporter as % of positive control (β-napthoflavone)

CCc1cccc(CC)c1N(COC)C(=O)CCl [Alachlor]
ARE-bla mutant IC50 (mutated ARE; [4]): inactive
Emax [1, 5]: 106%
EC50 [1, 6]: 5.9 ± 1.7 µM
activity in ARE-bla assay (words) ([1]; follow-up studies, up to 46 µM): active; also recorded: demonstrated activity
Emax [2, 7]: 127%
EC50 [2, 6]: 19.9 ± 7.1 µM
activity in ARE-luc assay (words) ([2]; follow-up studies, up to 46 µM): active; also recorded: demonstrated activity
genes associated with the generation of ROS and resulting oxidative damage (olfactory mucosa): up-regulation

c1ccc2c(c1)-c1cccc3cccc-2c13 [Fluoranthene]
ARE-bla mutant IC50 (mutated ARE): inactive
ARE-bla EC50 [1]: inactive
ARE-luc EC50 [2]: inactive

C/C=C1/C(=O)C[C@H]2[C@@H]3CCC4=CC(=O)CC[C@]4(C)[C@H]3CC[C@]12C [Guggulsterones E]
ARE-bla mutant IC50 (mutated ARE): inactive
ARE-bla Efficacy [1]: 106
EC50 [1]: 5 ± 3.1 µM
ARE-luc Efficacy [2]: 115
EC50 [2]: 15.4 ± 2.6 µM

[Cl][In]([Cl])[Cl] [Indium trichloride]
ARE-bla mutant IC50 (mutated ARE; [4]): inactive
EC50 [1, 8]: 14.8 ± 4.9 µM
ARE-bla Efficacy [1, 9]: 92%
EC50 [2, 8]: 25 µM
ARE-luc Efficacy [2, 9]: 312%

Oc1c(I)cc(Cl)c2cccnc12 [Iodochlorohydroxyquinoline]
activation of hypoxia-inducible factor 1 [3]: activate
ARE-bla mutant Efficacy (mutated ARE; confirmation/follow-up studies, normalized to DMSO (0%) and ARE-bla maximal β-napthoflavone response (100%)): 21%
activity in ARE-bla-mut assay (words) (mutated ARE; [10]): may exhibit autofluorescence; also recorded: active; also recorded: demonstrated activity
Emax [1, 5]: 41%
EC50 [1, 6]: 17.2 ± 6 µM
activity in ARE-bla assay (words) ([1]; follow-up studies, up to 46 µM): active
activity in ARE-bla assay (words) [1, 10]: demonstrated activity
Emax [2, 7]: 147%
EC50 [2, 6]: 10 ± 1.2 µM
activity in ARE-luc assay (words) ([2]; follow-up studies, up to 46 µM): active
activity in ARE-luc assay (words) [2, 10]: demonstrated activity
generation of ROS (ROS): confirmed

C[C@H](CCC(=O)O)[C@H]1CC[C@H]2[C@@H]3CC[C@@H]4C[C@H](O)CC[C@]4(C)[C@H]3CC[C@]12C [Lithocholic acid]
ARE-bla mutant IC50 (mutated ARE): inactive
Emax [1, 5]: 65%
EC50 [1, 6]: 17.7 ± 5.7 µM
Emax [2, 7]: 61%
EC50 [2, 6]: 21.9 ± 8.2 µM
activity in ARE-luc assay (words) ([2]; follow-up studies, up to 46 µM): active
activity in ARE-luc assay (words) [2, 11]: inactive

N[C@@H](Cc1ccc(N(CCCl)CCCl)cc1)C(=O)O [Melphalan, reference compound]
ARE-bla mutant IC50 (mutated ARE; [4]): inactive
activity in ARE-bla-mut assay (words) (mutated ARE; follow-up studies, up to 46 µM): inactive in all assays
activity in ARE-bla-mut assay (words) (mutated ARE; [12]): inactive across all assays
activity in ARE-bla assay (words) ([1]; follow-up studies, up to 46 µM): inactive in all assays
activity in ARE-bla assay (words) [1, 12]: inactive across all assays
activity in ARE-bla assay (words) [1, 11]: showed activity
ARE-luc EC50 [2, 8]: inactive
activity in ARE-luc assay (words) ([2]; follow-up studies, up to 46 µM): inactive in all assays
activity in ARE-luc assay (words) [2, 12]: inactive across all assays

CCN(CC)c1ccc(N)cc1 [N,N-Diethyl-p-phenylenediamine]
ARE-bla mutant IC50 (mutated ARE; [4]): inactive
EC50 [1, 8]: 18.7 ± 7.6 µM
ARE-bla Efficacy [1, 9]: 60%
ARE-luc EC50 [2, 8]: inactive

CN(C)c1ccc(N=O)cc1 [N,N-Dimethyl-p-nitrosoaniline]
ARE-bla mutant IC50 (mutated ARE): inactive
EC50 ([1]; Homo sapiens, HepG2, 16 h): 9.9 ± 3.4 µM
Emax [1, 13]: 82%
EC50 ([2]; Homo sapiens, HepG2, 16 h): 29.2 ± 2 µM
Emax [2, 14]: 626%

CN(C)c1ccc(N)cc1 [N,N-Dimethyl-p-phenylenediamine]
ARE-bla mutant IC50 (mutated ARE; [4]): inactive
Emax ([1]; Homo sapiens, HepG2, confirmation/follow-up studies, […], read-out: ARE-bla Efficacy): 80%
EC50 [1, 6]: 9.6 ± 0.6 µM
Emax ([2]; Homo sapiens, HepG2, confirmation/follow-up studies, […], read-out: ARE-luc Efficacy): 24%
EC50 [2, 6]: 11.8 ± 4.4 µM

CNc1ccc(O)cc1 [N-Methyl-p-aminophenol sulfate]
ARE-bla mutant IC50 (mutated ARE): inactive
Emax [1, 5]: 37%
EC50 [1, 6]: 13.6 ± 3.2 µM
Emax [2, 7]: 202%
EC50 [2, 6]: 24.6 ± 9.2 µM

NC(=S)Nc1ccccc1 [Phenylthiourea]
ARE-bla mutant IC50 (mutated ARE; [4]): inactive
ARE-bla EC50 [1, 8]: inactive
ARE-luc EC50 [2, 8]: inactive

c1ccc2ncccc2c1 [Quinoline]
ARE-bla mutant IC50 (mutated ARE): inactive
activity in ARE-bla-mut assay (words) (mutated ARE): inactive across all assays; also recorded: inactive in all assays
ARE-bla EC50 [1, 8]: inactive
activity in ARE-bla assay (words) ([1]; follow-up studies, up to 46 µM): inactive in all assays
activity in ARE-bla assay (words) [1, 15]: inactive across all assays
ARE-luc EC50 [2, 8]: inactive
activity in ARE-luc assay (words) ([2]; follow-up studies, up to 46 µM): inactive in all assays
activity in ARE-luc assay (words) [2, 15]: inactive across all assays

Clc1ccc(C(c2ccc(Cl)cc2)C(Cl)Cl)cc1 [Rhothane (TDE), Tetrachlorodiphenylethane]
ARE-bla mutant IC50 (mutated ARE; [4]): inactive
EC50 [1, 8]: 16.4 ± 7.3 µM
ARE-bla Efficacy [1, 16]: 43%
EC50 [2, 8]: 13.5 ± 3.3 µM
ARE-luc Efficacy [2, 16]: 32%
activity in ARE-luc assay (words) ([2]; follow-up studies, up to 46 µM): active
activity in ARE-luc assay (words) [2, 11]: inactive

C[C@H](CCC(=O)[O-])[C@H]1CC[C@H]2[C@@H]3[C@H](O)C[C@@H]4C[C@H](O)CC[C@]4(C)[C@H]3C[C@H](O)[C@]12C.[Na+] [Sodium Cholate]
ARE-bla mutant IC50 (mutated ARE; [4]): inactive
ARE-bla EC50 [1, 8]: inactive
ARE-luc EC50 [2, 8]: inactive

O=c1n(CC2CO2)c(=O)n(CC2CO2)c(=O)n1CC1CO1 (stereo not shown) [Teroxironum]
ARE-bla mutant IC50 (mutated ARE): inactive
ARE-bla Efficacy [1]: 119
EC50 [1]: 5.9 ± 1.9 µM
ARE-luc Efficacy [2]: 1541
EC50 [2]: 27.1 ± 1.8 µM

C=CC(=O)OCCOCCOCCOCCOC(=O)C=C [Tetraethylene glycol diacrylate]
ARE-bla mutant IC50 (mutated ARE; [4]): inactive
Emax [1, 5]: 53%
EC50 [1, 6]: 9.5 ± 4.8 µM
Emax [2, 7]: 288%
EC50 [2, 6]: 29.2 ± 2 µM

CN(C)C(=S)SSC(=S)N(C)C [Tetramethylthiuram disulfide]
ARE-bla mutant IC50 (mutated ARE; [4]): inactive
EC50 [1, 8]: 17.2 ± 4.9 µM
ARE-bla Efficacy [1, 9]: 35%
EC50 [2, 8]: 30.6 ± 5.2 µM
ARE-luc Efficacy [2, 9]: 265%

CC(C)CC(C)Nc1ccc(Nc2ccccc2)cc1 (stereo not shown) [n-(1,3-Dimethylbutyl)-n`-phenyl-p-phenylenediamine]
ARE-bla mutant IC50 (mutated ARE; [4]): inactive
Emax [1, 5]: 89%
EC50 [1, 6]: 17.3 ± 5 µM
activity in ARE-luc assay (words) ([2]; follow-up studies, up to 46 µM): inactive
activity in ARE-luc assay (words) [2, 11]: active

Nc1ccccc1O [o-Aminophenol]
ARE-bla mutant IC50 (mutated ARE): inactive
EC50 ([1]; Homo sapiens, HepG2, 16 h): 6.8 ± 4.1 µM
Emax [1, 13]: 95%
EC50 ([2]; Homo sapiens, HepG2, 16 h): 26.2 ± 3.3 µM
Emax [2, 14]: 234%

Nc1ccccc1N [o-Phenylenediamine]
ARE-bla mutant IC50 (mutated ARE; [4]): inactive
EC50 [1, 8]: 7.2 ± 4.1 µM
ARE-bla Efficacy [1, 9]: 72%
EC50 [2, 8]: 27.3 ± 4.7 µM
ARE-luc Efficacy [2, 9]: 151%

ClC(Cl)=C(c1ccc(Cl)cc1)c1ccc(Cl)cc1 [p,p' -DDE, Dichlorodiphenyl dichloroethylene]
ARE-bla mutant IC50 (mutated ARE; [4]): inactive
ARE-bla EC50 [1, 8]: inactive
ARE-luc EC50 [2, 8]: inactive

O=Nc1ccc(Nc2ccccc2)cc1 [p-Nitrosodiphenylamine]
ARE-bla mutant IC50 (mutated ARE): inactive
ARE-bla Efficacy [1]: 31
EC50 [1]: 9.7 ± 4.1 µM
ARE-luc Efficacy [2]: 71
EC50 [2]: 21.7 ± 3.7 µM

— publication PMC3440086, “Profiling Environmental Chemicals for Activity in the Antioxidant Response Element Signaling Pathway Using a High Throughput Screening Approach” (Environmental Health Perspectives, 2012)
